Consider one compound from publication PMC9942120 (iScience, 2023).

Assay [1] has as its target Ank2; ANK2 (Mus musculus, UniProt Q8C8R3). Briefly: anti-AMG510 peptide IP and LC-MS/MS of heart tissue. Conditions: covalent at Cys3737; mice dosed orally […] mg/kg/day for […] days.
Assay [2] concerns the target KRT4 (Homo sapiens, UniProt P19013). Briefly: direct LC-MS/MS profiling of modified tryptic peptides. The format is cell-based. As to conditions: covalent at Cys42; H358 cells, […] AMG510, […] h (methods print […] h).
For assay [3], the target named is HSPD1 (Homo sapiens, UniProt P10809). The description is as above. As to conditions: covalent at Cys237; H358 cells, […] AMG510, […] h (methods print […] h). The format is cell-based.
Assay [4] has as its target T1, TK1 (Homo sapiens, UniProt P04183).
T1 sequence (P04183 2-234): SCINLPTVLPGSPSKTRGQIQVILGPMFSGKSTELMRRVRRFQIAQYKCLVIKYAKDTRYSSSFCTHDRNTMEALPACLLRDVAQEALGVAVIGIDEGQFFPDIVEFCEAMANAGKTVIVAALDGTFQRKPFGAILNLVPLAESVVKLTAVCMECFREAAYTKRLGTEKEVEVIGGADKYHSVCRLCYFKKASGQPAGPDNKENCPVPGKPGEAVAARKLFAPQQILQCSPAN
Described as above. As to conditions: covalent at Cys3; H358 cells, […] AMG510, […] h (methods print […] h). The assay is classed as cell-based.

For assay [5], the target named is T2, ALDOA (Homo sapiens, UniProt P04075).
T2 sequence (P04075 2-364): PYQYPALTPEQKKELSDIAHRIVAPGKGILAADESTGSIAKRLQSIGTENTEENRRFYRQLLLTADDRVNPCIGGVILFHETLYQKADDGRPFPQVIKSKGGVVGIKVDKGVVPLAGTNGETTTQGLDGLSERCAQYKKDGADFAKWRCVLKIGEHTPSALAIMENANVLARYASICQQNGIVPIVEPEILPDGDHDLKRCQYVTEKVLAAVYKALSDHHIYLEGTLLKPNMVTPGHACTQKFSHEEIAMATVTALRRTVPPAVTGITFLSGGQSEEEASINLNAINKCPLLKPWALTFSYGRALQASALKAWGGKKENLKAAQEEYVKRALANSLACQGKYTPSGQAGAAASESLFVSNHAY
The assay can be described thus: colorimetric aldolase activity kit. Conditions: covalent; […] AMG510 or vehicle, […] min. The format is cell-based.

Ank2; ANK2, sequence (Q8C8R3 whole entry): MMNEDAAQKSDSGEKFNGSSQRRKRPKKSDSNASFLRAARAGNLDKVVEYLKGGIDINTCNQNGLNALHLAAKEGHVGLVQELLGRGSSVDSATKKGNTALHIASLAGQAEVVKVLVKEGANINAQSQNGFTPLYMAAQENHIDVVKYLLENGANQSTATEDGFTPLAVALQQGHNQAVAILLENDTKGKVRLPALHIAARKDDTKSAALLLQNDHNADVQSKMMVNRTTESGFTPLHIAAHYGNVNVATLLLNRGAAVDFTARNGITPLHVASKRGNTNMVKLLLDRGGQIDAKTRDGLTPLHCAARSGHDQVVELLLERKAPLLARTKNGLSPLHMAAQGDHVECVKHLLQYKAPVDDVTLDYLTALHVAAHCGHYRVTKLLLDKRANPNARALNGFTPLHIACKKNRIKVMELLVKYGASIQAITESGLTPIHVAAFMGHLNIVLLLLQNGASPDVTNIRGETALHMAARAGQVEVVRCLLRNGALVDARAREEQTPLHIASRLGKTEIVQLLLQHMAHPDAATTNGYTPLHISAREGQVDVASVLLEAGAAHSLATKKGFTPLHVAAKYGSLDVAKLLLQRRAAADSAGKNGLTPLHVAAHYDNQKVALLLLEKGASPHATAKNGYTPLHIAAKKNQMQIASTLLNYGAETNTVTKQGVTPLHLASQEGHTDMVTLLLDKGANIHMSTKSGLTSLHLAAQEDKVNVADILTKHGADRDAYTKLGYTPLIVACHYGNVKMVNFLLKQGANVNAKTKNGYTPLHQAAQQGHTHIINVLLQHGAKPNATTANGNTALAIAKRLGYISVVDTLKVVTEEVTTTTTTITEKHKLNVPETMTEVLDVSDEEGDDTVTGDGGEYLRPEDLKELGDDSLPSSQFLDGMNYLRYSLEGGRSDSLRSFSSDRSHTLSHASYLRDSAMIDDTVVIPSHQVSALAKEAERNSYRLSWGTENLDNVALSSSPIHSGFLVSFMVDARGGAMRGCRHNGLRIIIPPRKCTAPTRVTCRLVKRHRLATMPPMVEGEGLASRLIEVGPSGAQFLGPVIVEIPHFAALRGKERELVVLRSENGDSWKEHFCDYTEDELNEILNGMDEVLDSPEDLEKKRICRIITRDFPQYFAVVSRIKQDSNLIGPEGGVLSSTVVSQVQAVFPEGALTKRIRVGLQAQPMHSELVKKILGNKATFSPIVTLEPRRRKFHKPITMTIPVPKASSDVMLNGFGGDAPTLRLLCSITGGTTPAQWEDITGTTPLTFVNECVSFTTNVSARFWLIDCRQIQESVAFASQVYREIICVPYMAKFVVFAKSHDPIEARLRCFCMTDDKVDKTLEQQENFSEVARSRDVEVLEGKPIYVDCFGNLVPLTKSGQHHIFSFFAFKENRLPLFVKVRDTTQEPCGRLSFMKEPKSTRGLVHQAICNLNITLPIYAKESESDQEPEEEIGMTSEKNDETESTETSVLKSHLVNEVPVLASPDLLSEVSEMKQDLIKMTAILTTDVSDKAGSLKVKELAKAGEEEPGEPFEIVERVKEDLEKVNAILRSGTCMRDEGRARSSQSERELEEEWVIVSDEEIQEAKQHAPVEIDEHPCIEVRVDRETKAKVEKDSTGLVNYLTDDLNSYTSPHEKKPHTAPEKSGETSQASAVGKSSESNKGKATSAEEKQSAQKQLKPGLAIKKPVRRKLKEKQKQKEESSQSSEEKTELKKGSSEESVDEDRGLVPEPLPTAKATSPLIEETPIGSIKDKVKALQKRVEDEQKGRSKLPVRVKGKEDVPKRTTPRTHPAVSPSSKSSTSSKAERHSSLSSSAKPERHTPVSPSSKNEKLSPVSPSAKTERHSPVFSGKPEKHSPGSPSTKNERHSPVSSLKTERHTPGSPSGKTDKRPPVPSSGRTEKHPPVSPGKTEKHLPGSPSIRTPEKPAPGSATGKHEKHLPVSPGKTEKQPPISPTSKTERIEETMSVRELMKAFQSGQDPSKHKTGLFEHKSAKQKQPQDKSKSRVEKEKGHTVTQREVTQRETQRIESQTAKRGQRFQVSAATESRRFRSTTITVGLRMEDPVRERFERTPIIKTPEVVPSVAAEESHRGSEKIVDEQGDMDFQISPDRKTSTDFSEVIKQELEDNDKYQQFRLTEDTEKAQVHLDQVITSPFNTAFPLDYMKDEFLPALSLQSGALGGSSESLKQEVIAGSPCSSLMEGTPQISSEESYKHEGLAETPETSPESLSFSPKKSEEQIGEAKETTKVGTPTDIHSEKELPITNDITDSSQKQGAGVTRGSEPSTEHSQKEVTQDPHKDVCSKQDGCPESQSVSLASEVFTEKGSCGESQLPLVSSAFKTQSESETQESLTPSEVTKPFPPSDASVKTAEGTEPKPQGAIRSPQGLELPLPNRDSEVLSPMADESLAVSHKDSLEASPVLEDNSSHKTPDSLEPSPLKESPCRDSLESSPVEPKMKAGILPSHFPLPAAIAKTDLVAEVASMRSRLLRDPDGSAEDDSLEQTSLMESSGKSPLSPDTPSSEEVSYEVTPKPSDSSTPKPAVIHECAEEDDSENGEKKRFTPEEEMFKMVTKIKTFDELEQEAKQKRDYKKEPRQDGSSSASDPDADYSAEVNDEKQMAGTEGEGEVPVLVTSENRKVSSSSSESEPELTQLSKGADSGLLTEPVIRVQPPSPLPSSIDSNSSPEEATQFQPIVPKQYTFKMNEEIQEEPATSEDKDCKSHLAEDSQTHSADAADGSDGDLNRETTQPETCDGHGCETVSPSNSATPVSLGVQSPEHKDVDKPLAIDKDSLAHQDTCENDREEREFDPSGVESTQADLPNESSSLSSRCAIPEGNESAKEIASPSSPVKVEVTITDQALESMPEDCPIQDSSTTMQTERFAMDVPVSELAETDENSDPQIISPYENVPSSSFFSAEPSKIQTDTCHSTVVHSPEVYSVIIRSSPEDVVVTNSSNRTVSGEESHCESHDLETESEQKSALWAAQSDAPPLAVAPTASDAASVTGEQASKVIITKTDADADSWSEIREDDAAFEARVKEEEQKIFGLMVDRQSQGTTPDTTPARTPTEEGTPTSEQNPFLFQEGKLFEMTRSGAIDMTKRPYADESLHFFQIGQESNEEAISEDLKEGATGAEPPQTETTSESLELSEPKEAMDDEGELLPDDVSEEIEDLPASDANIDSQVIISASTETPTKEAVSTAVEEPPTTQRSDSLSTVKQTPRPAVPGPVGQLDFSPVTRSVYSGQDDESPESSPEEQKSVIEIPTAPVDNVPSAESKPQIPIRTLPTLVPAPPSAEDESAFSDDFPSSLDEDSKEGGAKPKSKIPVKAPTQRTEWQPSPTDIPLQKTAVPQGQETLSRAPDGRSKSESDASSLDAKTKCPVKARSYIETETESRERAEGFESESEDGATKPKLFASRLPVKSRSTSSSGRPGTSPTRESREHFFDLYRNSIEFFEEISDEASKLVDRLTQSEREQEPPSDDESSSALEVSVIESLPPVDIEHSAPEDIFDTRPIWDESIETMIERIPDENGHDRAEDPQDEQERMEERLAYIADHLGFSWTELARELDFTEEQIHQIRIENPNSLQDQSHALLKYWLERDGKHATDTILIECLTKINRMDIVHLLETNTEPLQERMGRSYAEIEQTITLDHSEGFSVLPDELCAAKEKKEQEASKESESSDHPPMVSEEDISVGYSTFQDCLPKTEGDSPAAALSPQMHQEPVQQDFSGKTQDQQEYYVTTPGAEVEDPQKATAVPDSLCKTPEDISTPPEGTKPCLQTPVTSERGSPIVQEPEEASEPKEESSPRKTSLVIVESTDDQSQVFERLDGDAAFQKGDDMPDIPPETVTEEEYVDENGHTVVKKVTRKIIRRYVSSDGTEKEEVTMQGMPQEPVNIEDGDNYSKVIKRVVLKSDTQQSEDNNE
KRT4, sequence (P19013 whole entry): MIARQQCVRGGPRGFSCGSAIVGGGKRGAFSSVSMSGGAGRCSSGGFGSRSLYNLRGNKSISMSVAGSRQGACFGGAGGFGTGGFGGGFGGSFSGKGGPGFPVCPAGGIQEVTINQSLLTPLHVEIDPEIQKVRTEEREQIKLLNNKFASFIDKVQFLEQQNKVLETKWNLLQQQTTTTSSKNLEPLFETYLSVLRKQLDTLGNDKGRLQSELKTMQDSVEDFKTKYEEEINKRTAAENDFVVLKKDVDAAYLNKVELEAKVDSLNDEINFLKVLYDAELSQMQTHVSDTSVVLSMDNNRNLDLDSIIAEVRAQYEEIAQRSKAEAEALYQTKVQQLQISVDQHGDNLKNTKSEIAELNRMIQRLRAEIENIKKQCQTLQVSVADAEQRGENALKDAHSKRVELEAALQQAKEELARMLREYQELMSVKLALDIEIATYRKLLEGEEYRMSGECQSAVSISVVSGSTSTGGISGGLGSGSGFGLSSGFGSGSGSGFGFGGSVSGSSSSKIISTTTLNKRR
HSPD1, sequence (P10809 27-573): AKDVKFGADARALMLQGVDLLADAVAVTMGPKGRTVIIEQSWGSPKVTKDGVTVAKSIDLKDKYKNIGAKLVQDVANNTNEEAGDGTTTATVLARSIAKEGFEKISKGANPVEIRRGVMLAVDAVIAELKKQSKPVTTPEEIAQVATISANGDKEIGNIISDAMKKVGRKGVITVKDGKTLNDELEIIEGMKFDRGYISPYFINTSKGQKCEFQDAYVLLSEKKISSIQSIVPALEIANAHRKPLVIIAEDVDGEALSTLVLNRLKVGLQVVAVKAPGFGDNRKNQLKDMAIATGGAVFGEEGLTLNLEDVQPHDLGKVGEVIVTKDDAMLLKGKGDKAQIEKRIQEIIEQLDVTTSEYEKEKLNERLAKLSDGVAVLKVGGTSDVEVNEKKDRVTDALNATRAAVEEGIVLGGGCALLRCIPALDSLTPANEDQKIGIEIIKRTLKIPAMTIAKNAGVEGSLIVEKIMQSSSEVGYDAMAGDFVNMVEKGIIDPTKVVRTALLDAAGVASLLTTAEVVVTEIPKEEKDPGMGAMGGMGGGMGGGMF

For the compound `C=CC(=O)N1CCN(c2nc(=O)n(-c3c(C)ccnc3C(C)C)c3nc(-c4c(O)cccc4F)c(F)cc23)[C@@H](C)C1` [AMG510], in assay [1], the “anti-AMG510 peptide IP and LC-MS/MS of heart tissue” value is given as “Ank2 was modified by AMG510 at Cys3737 in the mouse heart tissue”. The “direct LC-MS/MS profiling of modified tryptic peptides” value is “differentiating epithelia cell markers (KRT4 C42)” in assay [2]; “protein folding accessory protein (HSPD1 C237)” in assay [3]; “They included enzymes (PLOD3 C691, RPE C5, SPTLC2 C99, UBE2O C370, and TK1 C3)” in assay [4]. For the same compound, the aldolase activity entry in assay [5] is on record as “The ALDOA enzyme activity assay showed that the activity was indeed inhibited by the AMG510”.
